The target in data set [1] is T1, TDP1 (Homo sapiens, UniProt Q9NUW8).
T1 construct: made in house; host or cells: E. coli
In words: Real-time fluorescence detection of TDP1 activity, single-stranded FAM/BHQ biosensor. To be noted: for Inhibitory effect on TDP1 activity (in words): single-stranded fluorescent biosensor, primary screening; for IC50: single-stranded fluorescent biosensor 50 nM, TDP1 1.5 nM, 26 °C, read-out: IC50 (half-maximal inhibitory concentration) of TDP1 activity. In kind it is biochemical. As to the method: (§1) Conditions and details for our real-time detection of TDP1 activity using the single-stranded and hairpin fluorescent biosensors were reported in our previous work[47]. Briefly, the approach consists in fluorescence intensity measurement of the reaction of quencher removal from the fluorophore-quencher coupled DNA-oligonucleotide catalysed by TDP1 in the presence of inhibitor and in the absence of it (the control samples contained 1% DMSO). Reaction mixtures (200 µl) contained TDP1 buffer (50 mM Tris-HCl, pH 8.0, 50 mM NaCl, 7 mM β-mercaptoethanol), oligonucleotide (50 nM substrate of TDP1), testable inhibitor and purified TDP1 (1.5 nM). The reactions were incubated at a constant temperature of 26 °C in a POLARstar OPTIMA fluorimeter, BMG LABTECH, GmbH, to measure fluorescence every 55 s (Ex485/Em520 nm) during the linear phase (here data from 0 to 8 min). The average values of half maximal inhibitory concentration (IC50) were determined using an eleven-point concentration response curve in three independent experiments and calculated using MARS Data Analysis 2.0 (BMG LABTECH).
To discover inhibitors of TDP1 we recently developed original single-stranded and hairpin fluorophore–quencher coupled DNA-biosensors for real-time measurement of TDP1 cleavage activity. The single-stranded substrate is a 16-mer oligonucleotide containing both 5′-FAM fluorophore donor and a quenching 3′-BHQ moiety (Figure 1(A)). When the quencher is removed by TDP1, the fluorescence intensity increases and can be measured by fluorimeter (TDP1 catalysed reaction on biosensor is shown in Figure 3(A). Fluorescence intensity declines in the presence of inhibitor, the resulting curves of the dependence of TDP1 residual activity as a function of the concentration of inhibitors were obtained using 4-parameter logistic regression fit, which was used to calculate IC50 values[47]^,[58].
For primary screening, the effect of a large group of disaccharide nucleosides and their hydrophobic derivatives on human recombinant TDP1 activity has been evaluated by fluorescent method on a single-stranded substrate described above.

The nature of data set [2]: Water solubility (qualitative). It is filed as physicochemical.
The target of data set [3] is T1, TDP1. In words: Steady-state kinetic analysis of TDP1 reaction, single-stranded substrate. It is filed as biochemical. The following applies: for Ki: Cornish-Bowden method, read-out: Inhibition constant, KI. How it is done: (§2) To determine the kinetic parameters: apparent maximum rate of enzymatic reaction (Vmax), Michaelis constant (KM), constant of inhibition (KI), and possible inhibition mechanism, steady-state kinetic experiments were carried out at five fixed concentrations of substrate with variation of inhibitor concentrations. The standard reaction mixtures (200 μl) contained 50 nM, 100 nM, 200 nM, 500 nM or 1000 nM substrate, testable inhibitor, 1.5 nM recombinant human TDP1 and reaction buffer components (50 mM Tris-HCl, pH 8.0, 50 mM NaCl, 7 mM β-mercaptoethanol). After addition of the enzyme, the reaction mixtures were incubated at a constant temperature of 26 °C and measured in a POLARstar OPTIMA fluorimeter, BMG LABTECH, GmbH, to measure fluorescence every 55 s (Ex485/Em520 nm) during the linear phase (data from 0 to 8 min). The initial data (kinetic curves) were obtained in three independent experiments and statistically processed in software OriginPro 8.6.0.
Vmax and KM decrease proportionally (Figure 6(A,B)), which corresponds to the uncompetitive type of inhibition, according to the general equation of the rate of product formation in the Michaelis–Menten kinetics.
(§3) Values of the inhibition constant (KI) were determined using Cornish–Bowden method. Similar experiments were performed for all seven tested inhibitors on two types of DNA substrates, and the results are shown in Table 4.

For data set [4], the target named is T1, TDP1. In words: Steady-state kinetic analysis of TDP1 reaction, double-stranded (hairpin) substrate. In kind it is biochemical. To be noted: for Ki: Cornish-Bowden method, read-out: Inhibition constant, KI. As to the method: as §2, §3
The target of data set [5] is T2, SCAN1 (mutant form of TDP1 with H493R substitution) (Homo sapiens, UniProt Q9NUW8, H493R).
T2 construct: made in house; host or cells: E. coli
T2 sequence (Q9NUW8 whole entry H493R): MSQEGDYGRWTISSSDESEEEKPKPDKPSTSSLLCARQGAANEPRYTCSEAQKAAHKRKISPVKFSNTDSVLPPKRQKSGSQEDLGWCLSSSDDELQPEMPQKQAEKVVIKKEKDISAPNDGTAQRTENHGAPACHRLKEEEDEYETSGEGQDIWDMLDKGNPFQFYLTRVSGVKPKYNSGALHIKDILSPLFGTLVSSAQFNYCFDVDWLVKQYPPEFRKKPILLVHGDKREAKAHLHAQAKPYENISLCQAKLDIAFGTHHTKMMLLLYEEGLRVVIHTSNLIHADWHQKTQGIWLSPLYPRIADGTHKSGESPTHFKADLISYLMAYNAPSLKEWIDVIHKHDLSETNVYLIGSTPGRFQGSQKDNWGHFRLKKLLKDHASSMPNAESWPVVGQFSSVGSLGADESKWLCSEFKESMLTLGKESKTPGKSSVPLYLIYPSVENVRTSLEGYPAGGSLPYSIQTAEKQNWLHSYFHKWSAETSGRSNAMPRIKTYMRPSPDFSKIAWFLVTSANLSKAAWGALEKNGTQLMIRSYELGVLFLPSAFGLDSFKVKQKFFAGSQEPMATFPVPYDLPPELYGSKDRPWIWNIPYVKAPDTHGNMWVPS
As to the kind of experiment: Fluorescence real-time assay on mutant TDP1 (SCAN1), single-stranded oligonucleotide. It is filed as biochemical.
Source text: The recombinant tyrosyl-DNA phosphodiesterase 1 and the mutant form of TDP1 with substitution (H493R) were expressed in the E. coli system (plasmids pET16B-TDP1 and pET16B-SCAN1 were provided by Dr. K.W. Caldecott, University of Sussex, United Kingdom and by Dr. S. El-Khamisy, University of Sheffield, United Kingdom) and purified according to the previously described technique.
as §1
The IC50 values obtained by the fluorescence real-time assay on a single-stranded oligonucleotide (section 3.1) were higher than 100 μM.

The test system of data set [6] is A-549 cell line (adenocarcinomic human alveolar basal epithelial cells). In words: MTT test, cytotoxicity and combination with topotecan, A-549. In kind it is cell-based. To be noted: A-549 cells; for Synergistic coefficient (SC) with topotecan: MTT, inhibitor in combination with topotecan, SC < 1 indicates synergy; for Effect on cytotoxic effect of topotecan (in words): non-toxic inhibitor concentrations. How it is done: (§4) Tumour cell line A549 (adenocarcinomic human alveolar basal epithelial cells) and noncancerous cell line WI-38 (fibroblasts derived from lung tissue of a 3 months gestation […] fetus) were used in cell-based experiments to determine the cytotoxicity of inhibitors and their effect on antitumour drug topotecan using standard MTT test[48]. Cells were incubated in Iscove’s Modified Dulbecco’s Medium (IMDM) supplemented with 10% fetal bovine serum and 40 µg/ml gentamicin, 10 U/ml penicillin, […], 0.25 µg/ml amphotericin at 37 °C and 5% CO2 for 24 h in a CO2 incubator; the optical density of the final solution was measured in the wells of the microplate at 570 nm and 620 nm wavelengths using a MultiScan FC (Thermo Scientific) microplate reader.
(§5) To study the effect of inhibitors on the cytotoxic effect of a well-known antitumour drug, the topotecan of the manufacturer “ACTAVIS GROUP PTC ehf.” was used. First of all, the 50% cytotoxic concentration (CC50) for topotecan and each inhibitor were determined to produce a defined single-agent effect. Second, three independent MTT-tests were performed with each inhibitor in combination with topotecan. Then, the synergistic coefficient (SC) was calculated according to the following formula (2)[49]: (2) SC= CC50 tpc,(+I)/CC50 tpc+CC50 I, (+tpc)/CC50 I,
(§6) CC50 tpc,(+I) and CC50 I,(+tpc) are the concentrations of topotecan and inhibitor used in combination to achieve 50% drug effect. CC50 tpc and CC50 I are the concentrations for single agents to achieve the same effect. SC values of less than, equal to, or more than 1 indicates synergy, additivity, and antagonism, respectively. The results were calculated and statistically processed in Microsoft Excel.
For orientation: Formazan colour is commonly taken as a measure of viable cells.

The target in data set [7] is T1, TDP1. As to the kind of experiment: Fluorescence anisotropy assay of TDP1-DNA substrate complex. In kind it is binding. The following applies: 3 nM single-strand oligonucleotide without quencher, 50 nM TDP1. How it is done:
Fluorescence anisotropy was measured by using a fluorescent single-strand DNA-oligonucleotide (3 nM) without quencher at the 3′-end in the presence of the inhibitor in different concentrations (Fluorescein control, CFlu = 10^−9 M). Reaction mixtures (200 µl) contained TDP1 buffer (50 mM Tris-HCl, pH 8.0, 50 mM NaCl, 7 mM β-mercaptoethanol), a single-strand DNA-oligonucleotide without quencher (3 nM substrate of TDP1), a testable inhibitor and the purified TDP1 (50 nM). The reactions were incubated at a constant temperature of 26 °C in a POLARstar OPTIMA fluorimeter, BMG LABTECH, GmbH, to measure fluorescence anisotropy every 55 s (Ex482/Em530 nm) during the linear phase (from 0 to 8 min) in two independent experiments.
Fluorescence anisotropy (r) was calculated by using the Equation (1): (1) r = (III–I⊥)/(III+ 2I⊥)
The dependence of the anisotropy on the concentration of the inhibitor was determined using a six-point response curve in two independent experiments and calculated using MARS Data Analysis 2.0 (BMG LABTECH).
To obtain some information about interaction of disaccharide nucleosides with TDP1, anisotropy of the fluorescent DNA substrate was measured. We used single-stranded oligonucleotide without a quencher at the 3′-end in the presence of testable inhibitors at different concentrations.
(Fluorescence polarisation rises when a labelled molecule tumbles more slowly, as on binding a larger partner.)

Data set [8] deals with WI-38 cell line (noncancerous fibroblasts derived from lung tissue). As to the kind of experiment: MTT test, cytotoxicity and combination with topotecan, WI-38. It is filed as cell-based, human. The following applies: WI-38 non-cancerous cell line. How it is done: as §4, §5, §6

The source of these data is paper PMC6136360, “Novel group of tyrosyl-DNA-phosphodiesterase 1 inhibitors based on disaccharide nucleosides as drug prototypes for anti-cancer therapy” (Journal of Enzyme Inhibition and Medicinal Chemistry, 2018).

Where only a bound is given, the exact number is not on record here.

T1 sequence (Q9NUW8 whole entry): as the sequence (Q9NUW8 whole entry H493R) above, with R493H counted along it

For `Nc1ncnc2c1ncn2[C@@H]1O[C@H](CO)[C@@H](O)[C@H]1O[C@@H]1O[C@H](COP(=O)([O-])[O-])[C@@H](O)[C@H]1O.[Na+].[Na+]` [Compound 3], the “Inhibitory effect on TDP1 activity (in words)” value at TDP1 [1] is recorded as “low inhibitory effect”. For the same compound, the “Water solubility (in words)” value in data set [2] was “water-soluble”.
Broadly, the Ki is the dissociation constant of the complex between target and ligand, obtained from inhibition or displacement. In the case of `CC(C)[Si]1(C(C)C)OC[C@H]2O[C@@H](n3cnc4c(NC(=O)c5ccccc5)ncnc43)[C@H](O[C@@H]3O[C@H](COC(=O)c4ccccc4)[C@@H](OC(=O)c4ccccc4)[C@H]3OC(=O)c3ccccc3)[C@@H]2O[Si](C(C)C)(C(C)C)O1` [Compound 4], the IC50 on TDP1 [1] was determined as 1300 ± 200 nM. On TDP1 [3], the Type of inhibition result is “Mixed” and the Ki came to 300 ± 100 nM. At TDP1 [4], the Type of inhibition entry is “Mixed” and the Ki amounted to 200 ± 100 nM. The IC50 in data set [5] is above 100000 nM. In data set [6], the “Synergistic coefficient (SC) with topotecan” value (“Synergistic coefficient (SC)” below) is given as “less than or equal to 0.7” and the “Effect on cytotoxic effect of topotecan (in words)” value (from here on “Effect on cytotoxic effect”) is recorded as “significant increase of cytotoxic effect of topotecan”. The “Change of fluorescence anisotropy with inhibitor concentration” value (“Change … with inhibitor concentration” for short) on TDP1 [7] is “significant decrease in the anisotropy”.
On to `Cc1cn([C@@H]2O[C@H](COP(=O)([O-])[O-])[C@@H](O)[C@H]2O[C@@H]2O[C@H](CO)[C@@H](O)[C@H]2O)c(=O)[nH]c1=O.[Na+].[Na+]` [Compound 6], for which the IC50 at TDP1 [1] was 18500 ± 800 nM; in data set [5] it was above 100000 nM. Further, the Type of inhibition entry on TDP1 [3] and on TDP1 [4] was “Noncompetitive” in each case. The Ki stood at 7900 ± 800 nM on TDP1 [3] and 8800 ± 900 nM on TDP1 [4]. The “Effect on cytotoxic effect” value in data set [6] is “significant increase of cytotoxic effect of topotecan”. The “Change … with inhibitor concentration” value at TDP1 [7] was “anisotropy remained unchanged”. The “Water solubility (in words)” value in data set [2] was “high water solubility”.
On to `Cc1cn([C@@H]2O[C@@H]3CO[Si](C(C)C)(C(C)C)O[Si](C(C)C)(C(C)C)O[C@H]3[C@H]2O[C@@H]2O[C@H](COC(=O)c3ccccc3)[C@@H](OC(=O)c3ccccc3)[C@H]2OC(=O)c2ccccc2)c(=O)[nH]c1=O` [Compound 7], for which, on TDP1 [3], the Type of inhibition entry was “Mixed” and the Ki worked out at 900 ± 300 nM. Also, on TDP1 [4], the Type of inhibition entry is recorded as “Mixed” and the Ki was found to be 300 ± 100 nM. The compound further registered an IC50 in data set [5] above 100000 nM. In data set [6], the “Synergistic coefficient (SC)” value was “less than or equal to 0.7” and the “Effect on cytotoxic effect” value was “significant increase of cytotoxic effect of topotecan”. Further, on TDP1 [7], the “Change … with inhibitor concentration” value is “significant decrease in the anisotropy”.
Turning to `Nc1nc2c(ncn2[C@@H]2O[C@H](CO)[C@@H](O)[C@H]2O[C@@H]2O[C@H](COP(=O)([O-])[O-])[C@@H](O)[C@H]2O)c(=O)[nH]1.[Na+].[Na+]` [Compound 9], on TDP1 [1], the “Inhibitory effect on TDP1 activity (in words)” value is “not active at all”. The “Water solubility (in words)” value in data set [2] is “water-soluble”.
As for `CC(C)C(=O)Nc1nc2c(ncn2[C@@H]2O[C@H](CO)[C@@H](O)[C@H]2O[C@@H]2O[C@H](COC(=O)c3ccccc3)[C@@H](OC(=O)c3ccccc3)[C@H]2OC(=O)c2ccccc2)c(=O)[nH]1` [Compound 10], on TDP1 [3], the Type of inhibition result was “Mixed” and the Ki is 1700 ± 400 nM. Moreover, on TDP1 [4], the Type of inhibition result is given as “Mixed” and the Ki turned out to be 3100 ± 300 nM. For the same compound, the IC50 in data set [5] was above 100000 nM. In data set [6], the “Synergistic coefficient (SC)” value was “less than or equal to 0.7” and the “Effect on cytotoxic effect” value is “significant increase of cytotoxic effect of topotecan”. Besides, the “Synergy with topotecan (in words)” value in data set [8] is on record as “demonstrated synergy with topotecan”. For the same compound, the “Change … with inhibitor concentration” value on TDP1 [7] was “significant decrease in the anisotropy”.
As for `CC(C)C(=O)Nc1nc2c(ncn2[C@@H]2O[C@@H]3CO[Si](C(C)C)(C(C)C)O[Si](C(C)C)(C(C)C)O[C@H]3[C@H]2O[C@@H]2O[C@H](COC(=O)c3ccccc3)[C@@H](OC(=O)c3ccccc3)[C@H]2OC(=O)c2ccccc2)c(=O)[nH]1` [Compound 11], the Type of inhibition result on TDP1 [3] and at TDP1 [4] was “Mixed” in each case. For the same compound, the Ki at TDP1 [3] was 200 ± 100 nM; at TDP1 [4], 300 ± 200 nM. Further, the IC50 in data set [5] was above 100000 nM. Further, the “Effect on cytotoxic effect” value in data set [6] is recorded as “significant increase of cytotoxic effect of topotecan”. Further, at TDP1 [7], the “Change … with inhibitor concentration” value is recorded as “significant decrease in the anisotropy”.
